Reference: ChEMBL document CHEMBL5523751, “Discovery of Novel Diaryl-Substituted Fused Heterocycles Targeting Katanin and Tubulin with Potent Antitumor and Antimultidrug Resistance Efficacy” (J Med Chem, 2024)
pIC50: −log10 of the molar value. ≈ marks a conversion by molar mass, not a printed value. Calls of active or inactive are those of the source. The calls are words filed in the database; no cut-off is given here.

How the values were obtained:
[1] = Cmax in mouse at 15 mg/kg, po measured upto 24 hrs by LC-MS/MS analysis; type: ADME, organism-based; conditions: in vivo
HeLa = assay: Antiproliferative activity against human HeLa assessed as inhibition of cell growth measured after 48 hrs by MTT assay; type: functional, cell-based
[2] = Toxicity in Balb/C nude mouse xenografted with A549/Taxol assessed as effect on heart at 15 mg/kg, ip measured after 14 days by H and E staining based analysis; type: organism-based, A549/TR; conditions: in vivo, 336 h, time 14 day
[3] = Toxicity in Balb/C nude mouse assessed as effect on body weight loss at 15 mg/kg, ip measured upto 2 weeks; type: organism-based; conditions: in vivo, 336 h
MCF7 [4] = assay: Induction of apoptosis in human MCF7 cells assessed as viable cells at 40 nM measured after 48 hrs by annexin-FITC and propidium iodide staining based flow cytometry analysis (reference value: 94.69%); type: functional; conditions: read-out: Activity
[5] = Toxicity in ICR mouse assessed as lethal dose administered as IP dose measured upto 14 days; conditions: in vivo, time < 14 day
[6] = Toxicity in Balb/C nude mouse assessed as abnormalities in spleen at 7.5 to 15 mg/kg, ip measured after 14 days by H and E staining based analysis; type: organism-based; conditions: in vivo, 336 h, dose 7.5-15 mg/kg, time 14 day
[7] = Resistance index, ratio of IC50 for antiproliferative activity against human A549/Taxol cells to IC50 for antiproliferative activity against human A549 cells; type: functional
[8] = Resistance index, ratio of IC50 for antiproliferative activity against paclitaxel resistant human A2780/Taxol cells to IC50 for antiproliferative activity against human A2780 cells; type: functional
PANC-1 = assay: Antiproliferative activity against human PANC-1 assessed as inhibition of cell growth measured after 48 hrs by MTT assay; type: functional, cell-based; conditions: PANC-1, 48 h
MDA-MB-231 [9] = assay: Downregulation of vimentin expression in human MDA-MB-231 cells at 5 to 40 nM by Western blot analysis; type: functional, cell-based; conditions: dose 5-40 nM
[10] = target: Katanin p60 ATPase-containing subunit A1 (Homo sapiens, UniProt O75449); assay: Induction of thermal stabilization in N-terminal human Katanin p60 (8 to 229 residues) expressed in Escherichia coli Rosetta (DE3) at 10 uM by thermal shift assay
Sequence of Katanin p60 ATPase-containing subunit A1 (O75449 whole entry, the tested form may be a part): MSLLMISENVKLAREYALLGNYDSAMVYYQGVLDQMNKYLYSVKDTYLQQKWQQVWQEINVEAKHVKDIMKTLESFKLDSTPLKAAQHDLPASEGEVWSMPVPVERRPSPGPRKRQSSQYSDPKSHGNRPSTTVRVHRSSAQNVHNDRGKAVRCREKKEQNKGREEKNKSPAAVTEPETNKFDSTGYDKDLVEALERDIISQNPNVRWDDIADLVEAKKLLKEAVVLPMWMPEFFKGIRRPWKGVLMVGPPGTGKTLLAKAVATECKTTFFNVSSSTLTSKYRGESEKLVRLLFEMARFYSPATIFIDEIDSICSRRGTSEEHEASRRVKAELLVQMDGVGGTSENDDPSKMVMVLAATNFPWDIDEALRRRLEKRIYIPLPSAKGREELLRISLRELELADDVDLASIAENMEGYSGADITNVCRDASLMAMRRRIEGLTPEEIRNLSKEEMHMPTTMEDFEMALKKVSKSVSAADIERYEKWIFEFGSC

[11] = Water solubility of the compound at pH 7.4 by HPLC analysis; type: physicochemical
[12] = Toxicity in Balb/C nude mouse xenografted with A549/Taxol assessed as effect on lung at 15 mg/kg, ip measured after 14 days by H and E staining based analysis; type: organism-based, A549/TR; conditions: in vivo, 336 h, time 14 day
MCF7 [13] = assay: Induction of apoptosis in human MCF7 cells assessed as viable cells at 20 nM measured after 48 hrs by annexin-FITC and propidium iodide staining based flow cytometry analysis (reference value: 94.69%); type: functional; conditions: read-out: Activity
A549/TR = assay: Antiproliferative activity against paclitaxel resistant human A549/Taxol cells assessed as inhibition of cell growth measured after 48 hrs by MTT assay; type: functional, cell-based
[14] = Toxicity in Balb/C nude mouse xenografted with A549/Taxol assessed as effect on spleen at 15 mg/kg, ip measured after 14 days by H and E staining based analysis; type: organism-based, A549/TR; conditions: in vivo, 336 h, time 14 day
MDA-MB-231 [15] = assay: Antitumor activity against human MDA-MB-231 cells xenografted in BALB/c nude mouse model assessed as tumor weight reduction at 15 mg/kg, ip measured after 14 days relative to control; type: functional; design: scale not given: the % may be the effect or the level left; conditions: time 14 day
MDA-MB-231 [16] = assay: Downregulation of MMP-9 expression in human MDA-MB-231 cells at 5 to 40 nM by Western blot analysis; type: functional, cell-based; conditions: dose 5-40 nM
MCF7 [17] = assay: Induction of apoptosis in human MCF7 cells measured after 48 hrs by annexin-FITC and propidium iodide staining based flow cytometry analysis; type: functional, cell-based; conditions: dose 10-40 nM
MDA-MB-468 = assay: Antiproliferative activity against human MDA-MB-468 cells assessed as inhibition of cell growth measured after 48 hrs by MTT assay; type: functional, cell-based; conditions: MDA-MB-468, 48 h
[18] = Tmax in mouse at 3 mg/kg, iv measured upto 24 hrs by LC-MS/MS analysis; type: ADME, organism-based; conditions: in vivo
[19] = Toxicity in Balb/C nude mouse xenografted with A549/Taxol assessed as effect on kidney at 15 mg/kg, ip measured after 14 days by H and E staining based analysis; type: organism-based, A549/TR; conditions: in vivo, 336 h, time 14 day
MDA-MB-231 [20] = assay: Inhibition of cell migration in human MDA-MB-231 cells assessed as reduction in number of cell migrated at 10 to 40 nM incubated for 24 hrs by crystal violet staining based analysis; type: functional; conditions: dose 10-40 nM
[21] = Acute toxicity in ICR mouse assessed as animal death at 300 mg/kg, ip measured after 2 days; type: organism-based; conditions: in vivo, 48 h, time 2 day
MDA-MB-231 [22] = assay: Antitumor activity against human MDA-MB-231 cells xenografted in BALB/c nude mouse model assessed as tumor weight reduction at 7.5 mg/kg, ip measured after 14 days relative to control; type: functional; design: scale not given: the % may be the effect or the level left; conditions: time 14 day
MCF7 [23] = assay: Induction of apoptosis in human MCF7 cells assessed as late apoptotic cells at 40 nM measured after 48 hrs by annexin-FITC and propidium iodide staining based flow cytometry analysis (reference value: 3.93%); type: functional
[24] = Acute toxicity in ICR mouse assessed as survival rate at 100 mg/kg, ip measured after 14 days relative to control; type: organism-based; conditions: in vivo, time 14 day
[25] = Resistance index, ratio of IC50 for antiproliferative activity against cisplatin resistant human A2780/CDDP cells to IC50 for antiproliferative activity against human A2780 cells; type: functional
[26] = Antiproliferative activity against human HUVEC cells assessed as cell viability at 30 to 60 nM measured after 6 hrs by MTT assay relative to control; type: toxicity, cell-based; conditions: dose 30-60 nM, read-out: Activity
[27] = Acute toxicity in ICR mouse assessed as survival rate at 300 mg/kg, ip measured after 14 days relative to control; type: organism-based; conditions: in vivo, time 14 day
[28] = Toxicity in Balb/C nude mouse xenografted with A549/Taxol assessed as adverse effect at 15 mg/kg, ip measured after 14 days; type: organism-based, A549/TR; conditions: in vivo, 336 h, time 14 day
[29] = Acute toxicity in ICR mouse assessed as animal death at 100 mg/kg, ip measured after 3 to 14 days; type: organism-based; conditions: in vivo, time 3-14 day
[30] = Toxicity in Balb/C nude mouse assessed as abnormalities in kidney at 7.5 to 15 mg/kg, ip measured after 14 days by H and E staining based analysis; type: organism-based; conditions: in vivo, 336 h, dose 7.5-15 mg/kg, time 14 day
A2780 = assay: Antiproliferative activity against human A2780 cells assessed as inhibition of cell growth measured after 48 hrs by MTT assay; type: functional, cell-based; conditions: A2780, 48 h
Tubulin (Homo sapiens) = Tubulin (Homo sapiens) (UniProt P68371+Q9H4B7+P0DPH7+P68366+Q13509+Q71U36+P04350+Q3ZCM7+P07437+P68363+Q9BQE3+Q6PEY2+Q13885+Q9BVA1+Q9BUF5); assay: Inhibition of microtubule assembly in human MCF7 cells assessed as appearance of disorganized fibrous microtubule structure at 1 to 10 nM incubated for 24 hrs by immunofluorescence assay; type: cell-based; conditions: dose 1-10 nM
HCT-116 = assay: Antiproliferative activity against human HCT-116 cells assessed as inhibition of cell growth measured after 48 hrs by MTT assay; type: functional, cell-based; conditions: HCT-116, 48 h

## COc1cc(-n2cnc3ccc(-c4ccc(C)c(N)c4)nc32)cc(OC)c1OC
[1]
  Cmax: 1200 ng/mL
HeLa
  pIC50: 9.05
[2]
  Activity: Non-Toxic
[3]
  Activity: Non-Toxic
MCF7 [4]
  viability at 0.04 µM: 40.1%
[5]
  LD50 at 336 h: 150 mg/kg
[6]
  Activity: Non-Toxic
[7]
  Ratio IC50: 1.45
[8]
  Ratio IC50: 1.54
PANC-1
  pIC50: 8.40
MDA-MB-231 [9]
  Activity: Active
[10]
  Activity: Active
[11]
  solubility: 30 µg/mL (≈ 76.8 µM)
[12]
  Activity: Non-Toxic
MCF7 [13]
  viability at 0.02 µM: 46.6%
A549/TR
  pIC50: 8.80
[14]
  Activity: Non-Toxic
MDA-MB-231 [15]
  Activity: 84%
MDA-MB-231 [16]
  Activity: Active
MCF7 [17]
  Activity: Dose-Dependent Effect
MDA-MB-468
  pIC50: 8.00
[18]
  Tmax: 4.8 min
[19]
  Activity: Non-Toxic
MDA-MB-231 [20]
  inhibition: Active
[21]
  Activity: Non-Toxic
MDA-MB-231 [22]
  Activity: 63%
MCF7 [23]
  Activity: 27.01%
[24]
  survival at 336 h: 80%
[25]
  Ratio IC50: 1.35
[26]
  viability at 6 h, 0.06 µM: > 90%
[27]
  survival at 336 h: 0%
[28]
  Activity: Non-Toxic
[29]
  Activity: Non-Toxic
[30]
  Activity: Non-Toxic
A2780
  pIC50: 8.52
Tubulin (Homo sapiens)
  inhibition: Active
HCT-116
  pIC50: 8.52
